Eight compounds from ChEMBL document CHEMBL1148416, “2-Alkylsulfanyl estrogen derivatives: synthesis of a novel class of multi-targeted anti-tumour agents” (Bioorg Med Chem Lett, 2004) can be followed below.

The structures appear in SMILES notation.

For the test, the system named is MCF7. Nature of the test: Anti-proliferative activity against MCF-7 human breast cancer cells was determined by using MCF-7 plate assay. The test is classed as functional, cell-based.
Take `CSc1cc2c(cc1O)CC[C@@H]1[C@@H]2CC[C@]2(C)[C@@H](O)CC[C@@H]12`: the IC50 (usually the point on the concentration scale where inhibition reaches its midpoint) stood at 3.96 µM.
The compound `CSc1cc2c(cc1OS(N)(=O)=O)CC[C@@H]1[C@@H]2CC[C@]2(C)[C@@H](O)CC[C@@H]12` registered an IC50 of 0.43 µM.
Compound `CCSc1cc2c(cc1OS(N)(=O)=O)CC[C@@H]1[C@@H]2CC[C@]2(C)[C@@H](O)CC[C@@H]12` had an IC50 of 35.3 µM.
In the case of `CSc1cc2c(cc1OS(N)(=O)=O)CCC1[C@@H]2CC[C@]2(C)C(=O)CC[C@@H]12` (single isomer, unassigned), the IC50 turned out to be 0.4 µM.
In the case of `CSc1cc2c(cc1O)CCC1[C@@H]2CC[C@]2(C)C(=O)CC[C@@H]12` (single isomer, unassigned), the IC50 is 33.4 µM.
`CCSc1cc2c(cc1O)CCC1[C@@H]2CC[C@]2(C)C(=O)CC[C@@H]12` (single isomer, unassigned) showed an IC50 of 31.9 µM.
The compound `C[C@]12CC[C@@H]3c4ccc(OS(N)(=O)=O)cc4CCC3[C@@H]1CCC2=O` (single isomer, unassigned) [EMATE] returned an IC50 of 22.8 µM.
For the compound `COc1cc2c(cc1O)CC[C@@H]1[C@@H]2CC[C@]2(C)[C@@H](O)CC[C@@H]12` [2-METHOXYESTRADIOL], the half-inhibitory concentration (IC50) worked out at 2.39 µM.
